The subject of one data set is E. Coli ATCC 25922. Briefly: Minimum Inhibitory Concentration (MIC), modified microbroth dilution. The settings on record: Escherichia coli, read-out: MIC50 E. coli. In kind it is cell-based. Background: Dilution methods test growth across graded concentrations, often in twofold steps.
For data set [1], the system named is Staphylococcus aureus ATCC 27660. The data set is described as above. It counts as cell-based. The settings on record: Staphylococcus aureus, read-out: MIC50 S. aureus.
The test system of data set [2] is Enterococcus faecalis ATCC 29212. The data set is described as above. It counts as cell-based. To be noted: Enterococcus faecalis, read-out: MIC50 E. faecalis.
Data set [3] concerns Pseudomonas aeruginosa ATCC 10145. The description is as above. To be noted: Pseudomonas aeruginosa, read-out: MIC50 P. Aeruginosa. It counts as cell-based.
Data set [4] relates to Klebsiella pneumoniae ATCC 13883. The description is as above. It counts as cell-based. To be noted: Klebsiella pneumoniae, read-out: MIC50 K. Pnuemnoiae.
Data set [5] in a line: Cytotoxicity colorimetric (tetrazolium) assay. In kind it is cell-based, mouse. The settings on record: mouse, NIH/3T3 cells (CRL-1658), NIH/3T3 cells; one hour with compound in serum-free media. The method, then: (§1) Cytotoxicity of the compounds was evaluated in a colorimetric assay using a transformed human liver cell line (HepG2, HB-8065) and an embryonic mouse cell line (NIH/3T3 cells, CRL-1658). This assay measures the bioreduction of a novel tetrazolium compound to a soluble formazan product by viable cells. HepG2 cells were seeded in 96 well plates at 2×10^4 cells/well in MEM medium with 10% fetal bovine serum (FBS) 24 hours prior to use. NIH/3T3 cells were seeded in 96 well plates at 2×10^4 cells/well in DMEM medium with 10% bovine calf serum (BCS) 24 hours prior to use. Cell monolayers were rinsed in serum-free media and incubated for one hour with compounds in serum-free media. After incubation, the media is replaced with serum supplemented media and live cells were measured using the Cell Titer 96 Aqueous […] Assay kit (Promega, Madison, Wis.). EC50 values were determined using a four parameter logistic equation: Y=Bottom+(Top-Bottom)/(1+10̂((LogEC50−X)*HillSlope)).
(§2) Actual results from a representative cytotoxicity assay are shown below in Table 2. Data is expressed as EC50 in μg/mL.

Data set [6] is described as follows: Cytotoxicity colorimetric (tetrazolium) assay. The settings on record: human, HepG2 cells (HB-8065), HepG2 cells; one hour with compound in serum-free media. It counts as cell-based, human. As for the experimental part: as §1, §2
Where [7] appears, read: ATCC25922, E. coli (25922), overnight incubation (18 hours).
Where [8] appears, read: ATCC27660, S. aureus (27660), overnight incubation (18 hours).
Where [9] appears, read: ATCC29212, E. faecalis (29212), overnight incubation (18 hours).
[10] abbreviates: ATCC10145, P. aeruginosa (10145), overnight incubation (18 hours).
The mark [11] stands for this setting: ATCC13883, K. pneumoniae (13883), overnight incubation (18 hours).

Converted amounts (≈) assume the structure as drawn. Where two headings read alike, the source gives them in different places.

What is called MIC50 is the lowest concentration that inhibits either 50% of growth or 50% of the strains tested, depending on the study. Usually EC50 stands for the concentration that produces a half-maximal response. Consider `NCCc1cccc(-c2cc(-c3cccc(-c4cc(-c5cccc(CCN)c5)on4)c3)no2)c1` [Compound 128], for which the MIC50 is 12.5 µg/mL (≈ 27.7 µM) in the data set on E. Coli ATCC 25922 (setting [7]); 1.56 µg/mL (≈ 3.46 µM) in data set [1] (setting [8]); 1.56 µg/mL (≈ 3.46 µM) in data set [2] (setting [9]); 25 µg/mL (≈ 55.5 µM) in data set [3] (setting [10]); 25 µg/mL (≈ 55.5 µM) in data set [4] (setting [11]). Besides, the EC50 at 1 h came out at 22.3 µg/mL (≈ 49.5 µM) in data set [5] and 47 µg/mL (≈ 104 µM) in data set [6].

With `NCCc1cc(CCN)cc(-c2cccc(-c3cc(CCN)cc(CCN)c3)c2)c1` [Compound 115], the MIC50 in the data set with E. Coli ATCC 25922 (setting [7]) was 25 µg/mL (≈ 62.1 µM); in data set [1] (setting [8]), 25 µg/mL (≈ 62.1 µM); in data set [2] (setting [9]), > 50 µg/mL; in data set [3] (setting [10]), > 50 µg/mL; in data set [4] (setting [11]), 50 µg/mL (≈ 124 µM). Further, the EC50 at 1 h in data set [5] is 1130 µg/mL (≈ 2810 µM); in data set [6], > 1160 µg/mL.

Consider `N=C(N)NCC(CNC(=N)N)c1cc(Br)cc(C#Cc2cccc(C#Cc3cc(Br)cc(C(CNC(=N)N)CNC(=N)N)c3)c2)c1` (stereo not drawn) [Compound 191], for which the MIC50 in the data set with E. Coli ATCC 25922 (setting [7]) was found to be 3.13 µg/mL (≈ 4.18 µM); in data set [1] (setting [8]), 1.56 µg/mL (≈ 2.08 µM); in data set [2] (setting [9]), 3.13 µg/mL (≈ 4.18 µM); in data set [3] (setting [10]), 6.25 µg/mL (≈ 8.35 µM); in data set [4] (setting [11]), 6.25 µg/mL (≈ 8.35 µM). The concentration for a half-maximal effect (EC50) at 1 h in data set [5] worked out at 17.4 µg/mL (≈ 23.3 µM); in data set [6], 70.3 µg/mL (≈ 93.9 µM).

`N=C(N)NCCCOc1cc(OCCCNC(=N)N)cc(-c2ccc3sc4ccc(-c5cc(OCCCNC(=N)N)cc(OCCCNC(=N)N)c5)cc4c3c2)c1` [Compound 172]: the MIC50 with E. Coli ATCC 25922 (setting [7]) came to 0.78 µg/mL (≈ 0.979 µM); in data set [1] (setting [8]), 0.049 µg/mL (≈ 0.0615 µM); in data set [2] (setting [9]), 0.78 µg/mL (≈ 0.979 µM); in data set [3] (setting [10]), 6.25 µg/mL (≈ 7.84 µM); in data set [4] (setting [11]) it was 0.78 µg/mL (≈ 0.979 µM). Besides, the figures for the EC50 at 1 h in data set [5] and in data set [6] were 41.4 µg/mL (≈ 51.9 µM) and 35.7 µg/mL (≈ 44.8 µM), respectively.

For `NCCc1cccc(-c2coc(-c3cccc(-c4nc(-c5cccc(CCN)c5)co4)c3)n2)c1` [Compound 132], the MIC50 was determined as 12.5 µg/mL (≈ 27.7 µM) in the data set with E. Coli ATCC 25922 (setting [7]); 12.5 µg/mL (≈ 27.7 µM) in data set [1] (setting [8]); 12.5 µg/mL (≈ 27.7 µM) in data set [2] (setting [9]); 25 µg/mL (≈ 55.5 µM) in data set [3] (setting [10]); 25 µg/mL (≈ 55.5 µM) in data set [4] (setting [11]). The EC50 at 1 h was found to be 23.5 µg/mL (≈ 52.1 µM) in data set [5] and 50.1 µg/mL (≈ 111 µM) in data set [6].

As for `N=C(N)NCCc1cc(CCNC(=N)N)cc(-c2csc(-c3cccc(-c4nc(-c5cc(CCNC(=N)N)cc(CCNC(=N)N)c5)cs4)c3)n2)c1` [Compound 137], the MIC50 with E. Coli ATCC 25922 (setting [7]) is 12.5 µg/mL (≈ 17 µM); in data set [1] (setting [8]) it was 3.13 µg/mL (≈ 4.25 µM); in data set [2] (setting [9]), 12.5 µg/mL (≈ 17 µM); in data set [3] (setting [10]) it was 12.5 µg/mL (≈ 17 µM); in data set [4] (setting [11]), > 50 µg/mL. The EC50 at 1 h in data set [5] was found to be 26.6 µg/mL (≈ 36.1 µM); in data set [6] it was 55.6 µg/mL (≈ 75.4 µM).

Consider `NCCCN1c2ccccc2Sc2ccccc21` [Compound 100], for which the MIC50 in the data set with E. Coli ATCC 25922 (ATCC25922, 18 h) was determined as 100 µg/mL (≈ 390 µM); in data set [1] (ATCC27660, 18 h), 100 µg/mL (≈ 390 µM); in data set [2] (ATCC29212, 18 h) it was 100 µg/mL (≈ 390 µM); in data set [3] (ATCC10145, 18 h), 100 µg/mL (≈ 390 µM); in data set [4] (ATCC13883, 18 h), 100 µg/mL (≈ 390 µM). Moreover, the EC50 at 1 h in data set [5] worked out at 13 µg/mL (≈ 50.7 µM); in data set [6], 18 µg/mL (≈ 70.2 µM).

In the case of `N=C(N)NCCc1cc(C#Cc2cc(C#Cc3cc(CCNC(=N)N)cc(CCNC(=N)N)c3)c(F)cc2F)cc(CCNC(=N)N)c1` [Compound 193], the MIC50 was 1.56 µg/mL (≈ 2.38 µM) in the data set on E. Coli ATCC 25922 (setting [7]); 0.39 µg/mL (≈ 0.596 µM) in data set [1] (setting [8]); 1.56 µg/mL (≈ 2.38 µM) in data set [2] (setting [9]); 6.25 µg/mL (≈ 9.55 µM) in data set [3] (setting [10]); 1.56 µg/mL (≈ 2.38 µM) in data set [4] (setting [11]). For the same molecule, the EC50 at 1 h is 62.4 µg/mL (≈ 95.3 µM) in data set [5] and 178 µg/mL (≈ 272 µM) in data set [6].

Regarding `NCCCn1c2cc(-c3cccc(N)c3)ccc2c2ccc(-c3cccc(N)c3)cc21` [Compound 159], the MIC50 with E. Coli ATCC 25922 (setting [7]) came to 12.5 µg/mL (≈ 30.7 µM); in data set [1] (setting [8]), 1.56 µg/mL (≈ 3.84 µM); in data set [2] (setting [9]), 12.5 µg/mL (≈ 30.7 µM); in data set [3] (setting [10]) it was 100 µg/mL (≈ 246 µM); in data set [4] (setting [11]), 12.5 µg/mL (≈ 30.7 µM). The EC50 at 1 h stood at 45.7 µg/mL (≈ 112 µM) in data set [5] and 64.7 µg/mL (≈ 159 µM) in data set [6].

Source of the values: US20140308317A1, “Polymeric Compounds And Methods Of Making And Using The Same” (CELLCEUTIX CORPORATION, priority 2012, published 2014).
